Results taken from patent US11292791B2 (priority 2017, dated 2022).

The compounds below were run against BRD4 (Homo sapiens (Human), UniProt O60885). Conditions: read-out: BRD4 IC50 (μM gmean).
Compound `COC(=O)N1c2ccc3c(nc(CN4CCC5(CC5)CC4=O)n3[C@@H]3CCC[C@@H](C(=O)O)C3)c2CC[C@@H]1C` [Example 688] has an IC50 of 1 to 1000 µM. Compound `COC(=O)N1c2ccc3c(nc(C(CO)c4ccccc4)n3C3CCCC(C(=O)O)C3)c2CC[C@@H]1C` (some centres unmarked) [Example 668] has an IC50 of 1 to 1000 µM. In the case of `COC(=O)N1c2ccc3c(nc(CCn4cccn4)n3CCN3CCN(C)CC3)c2CC[C@@H]1C` [Example 227], the IC50 is reported as 1 to 1000 µM. `COC(=O)N1c2ccc3c(nc(C(C)Cc4ccccc4)n3C3CCNCC3)c2CC[C@@H]1C` (some centres unmarked) [Example 947] gave an IC50 of 1 to 1000 µM. In the case of `COC(=O)N1c2ccc3c(nc(C[C@H]4CC[C@H](OC)CC4)n3[C@@H]3CCC[C@@H](C(=O)O)C3)c2CC[C@@H]1C` [Example 723], the IC50 is reported as 1 to 1000 µM. With `COC(=O)N1c2ccc3c(nc(Cc4ccccc4)n3[C@H]3CCCS(=O)(=O)C3)c2CC[C@@H]1C` [Example 264, methyl (S)-2-benzyl-3-((S)-1,1-dioxidotetrahydro-2H-thiopyran-3-yl)-7-methyl-3,7,8,9-tetrahydro-6H-imidazo[4,5-f]quinoline-6-carboxylate] the IC50 was 1 to 1000 µM. `COC(=O)N1c2ccc3c(nc(CC4CCCOC4)n3C3CCCC(C(=O)O)C3)c2CC[C@@H]1C` (some centres unmarked) [Example 806] showed an IC50 of 1 to 1000 µM. `COC(=O)N1c2ccc3c(nc(Cc4ccc(F)c(F)c4)n3[C@@H]3CCC[C@@H](C(=O)O)C3)c2CC[C@@H]1C` [Example 502] showed an IC50 of 1 to 1000 µM. In the case of `COC(=O)N1c2ccc3c(nc(CCn4cccn4)n3CCNCc3cnn(C)c3)c2CC[C@@H]1C` [Example 293], the IC50 is reported as 1 to 1000 µM. Compound `COC(=O)N1c2ccc3c(nc(C(C)Cn4cc(C)cn4)n3C3CCS(=O)(=O)C3)c2CC[C@@H]1C` (some centres unmarked) [Example 958] has an IC50 of 1 to 1000 µM. In the case of `COC(=O)N1c2ccc3c(nc(C(C)Cn4cccn4)n3C3CCS(=O)(=O)C3)c2CC[C@@H]1C` (some centres unmarked) [Example 772], the IC50 is reported as 1 to 1000 µM. `COC(=O)N1c2ccc3c(nc(CC(C(=O)O)c4ccccc4)n3C3COCC(F)(F)C3)c2CC[C@@H]1C` (some centres unmarked) [Example 903] gave an IC50 of 1 to 1000 µM. In the case of `COC(=O)N1c2ccc3[nH]c(CCc4ccccn4)nc3c2CC[C@@H]1C` [Example 12], the IC50 is reported as 1 to 1000 µM. In the case of `COC(=O)N1c2ccc3c(nc(Cc4ccccc4)n3C3CC4(CCNCC4)C3)c2CC[C@@H]1C` [Example 95], the IC50 is reported as 1 to 1000 µM. `COC(=O)N1c2ccc3c(nc(Nc4c(C)n[nH]c4C)n3[C@H]3CC[C@H](C(=O)O)CC3)c2CC[C@@H]1C` [Example 909] was tested, and the IC50 was 1 to 1000 µM. With `COC(=O)N1c2ccc3c(nc(Cn4ccccc4=O)n3[C@H]3CCCOC3)c2CC[C@@H]1C` [Example 260] the IC50 was 1 to 1000 µM. In the case of `COC(=O)N1c2ccc3c(nc(CCn4cccn4)n3CC(=O)N[C@H]3CC[C@H](CO)CC3)c2CC[C@@H]1C` [Example 348], the IC50 is reported as 1 to 1000 µM. `COC(=O)N1c2ccc3c(nc(N(C)c4ccc(F)cc4)n3[C@H]3CC[C@H](C(=O)O)CC3)c2CC[C@@H]1C` [Example 805] showed an IC50 of 1 to 1000 µM. Compound `COC(=O)N1c2ccc3c(nc(C(O)c4cc(F)ccc4F)n3C3CCCC(C(=O)O)C3)c2CC[C@@H]1C` (some centres unmarked) [Example 449] has an IC50 of 1 to 1000 µM. Compound `COC(=O)N1c2ccc3c(nc(Cc4nccc(C)n4)n3[C@@H]3CCC[C@@H](C(=O)O)C3)c2CC[C@@H]1C` [Example 820] has an IC50 of 1 to 1000 µM. `COC(=O)N1c2ccc3c(nc(CC(C(=O)O)c4ccc(C(F)F)cc4)n3C3COCC(F)(F)C3)c2CC[C@@H]1C` (some centres unmarked) [Example 920] was tested, and the IC50 was 1 to 1000 µM. Compound `COC(=O)N1c2ccc3c(nc(Cc4ccccc4)n3-c3cccc(C(=O)O)c3)c2CC[C@@H]1C` [Example 44] has an IC50 of 1 to 1000 µM. For `COC(=O)N1c2ccc3c(nc(CCn4ccccc4=O)n3CCS(C)(=O)=O)c2CC[C@@H]1C` [Example 273], the IC50 was 1 to 1000 µM. With `COC(=O)N1c2ccc3c(nc(C(O)C4CCC(F)(F)CC4)n3C3CCCC(C(=O)O)C3)c2CC[C@@H]1C` (some centres unmarked) [Example 699] the IC50 was 1 to 1000 µM. `COC(=O)N1c2ccc3c(nc(CCn4ccccc4=O)n3CC(=O)N(C)[C@H]3CCOC3)c2CC[C@@H]1C` [Example 387] gave an IC50 of 1 to 1000 µM. For `COC(=O)N1c2ccc3c(nc(CC(C(=O)O)c4ccc(C(F)F)cc4)n3C3COCC(F)(F)C3)c2CC[C@@H]1C` (some centres unmarked) [Example 785], the IC50 was 1 to 1000 µM.
